# Results taken from patent US9504676B2, “Molecules inhibiting a metabolic pathway involving the Syk protein tyrosine kinase and method for identifying said molecules” (CENTRE NATIONAL DE LA RECHERCHE SCIENTIFIQUE, priority 2008, dated 2016).
# Columns and labels:
# BALB/c mice = assay: Peritonitis: Syk-dependent peritoneal neutrophil recruitment; assay type: in vivo; details: single oral administration of 100 mg/kg, Bordetella pertussis toxin
# Btk = assay: Phosphorylation and FcεRI-induced kinase activity of Btk in RBL-2H3 cells; assay type: cell-based, rat
# Excerpt: To examine the functional similarities with G4G11, the inventors explored the biological effects of C-13 on mast cell activation. […] Similarly to the intrabody G4G11, C-13 inhibited the phosphorylation and FcεRI-induced kinase activity of Btk (FIG. 2A) and the phosphorylation of PLC-γ1 and PLC-γ2, the two PLC-γ isoforms expressed in mast cells (FIGS. 2A, C). PTK Lyn phosphorylates both Syk and Btk giving rise to the complete activation thereof and the subsequent phosphorylation of PLC-γ^18.
# • 1) Chemical products and antibodies. A chemical bank of 3000 molecules (a varied subset) was acquired from ChemBridge, Inc. (San Diego, Calif.). Stocks of solutions of small molecules were prepared at a rate of 10 mM in DMSO (dimethylsulphoxide), except for C-13 (methyl 2-{5-[(3-benzyl-4-oxo-2-thioxo-1,3-thiazolidin-5-ylidene)methyl]-2-furyl}benzoate, ChemBridge ID No. 6197026) prepared in DMF (dimethylformamide). […] The binding of G4G11 with Syk was assessed by adding the 9E10 monoclonal antibody conjugated with HRP detecting the amino acid sequence EQKLISEEDLN of human c-myc protein located at the C-terminal end of the scFv fragment. To generate Syk mutants, targeted mutagenesis was used on GST:Syk 6-242 protein and the binding of G4G11 with the mutants was assessed in the presence of 5 μM of C-13. • 3) Cells, culture conditions and functional tests. […]
structure (smiles),measurement,setting,value
"COC(=O)c1ccccc1-c1ccc(/C=C2/SC(=S)N(Cc3ccccc3)C2=O)o1 [Molecule C-13, methyl 2-{5-[(3-benzyl-4-oxo-2-thioxo-1,3-thiazolidin-5-ylidene)methyl]-2-furyl}benzoate]",Syk-dependent neutrophil recruitment induced by thioglycollate in the peritoneal cavity,BALB/c mice,did not affect
same,phosphorylation and FcεRI-induced kinase activity of Btk,Btk,inhibited
